Measured values reported in patent EP4752152A1, “STEROID COMPOUND, AND PREPARATION METHOD THEREFOR AND USE THEREOF” (Cholesgen (Shanghai) Co.Ltd., priority 2023, dated 2025).
In brackets after ≈: the same amount, converted by molar mass. Read-outs that look alike come from different tables or passages of the source.

Experiments:
[1] = Solubility in fasted-state simulated intestinal fluid (FaSSIF); type: physicochemical; settings: FaSSIF pH 6.5, 300 µM sample solution, room temperature
Description: Compound powder was dissolved in DMSO to prepare a 10.0 mM stock solution for later use. 0.021 g NaOH, 0.198 g NaH2PO4, and 0.309 g NaCl were weighed and added to 50.0 mL of ultrapure water. After thorough mixing, the pH was adjusted to 6.5 using HCl or NaOH. Then, 0.112 g of FaSSIF powder was added. After complete dissolution, the solution was allowed to stand at room temperature for 2 hours for later use. A certain volume of the compound stock solution was added to a certain volume of FaSSIF to prepare a 300 µM sample solution, which was mixed at room temperature under 1000 rpm for 1 hour. After 1 hour, the sample was centrifuged, and a certain volume of supernatant was taken. The termination solution was added to precipitate the sample, which was then thoroughly mixed and centrifuged for 20 minutes. The supernatant was then taken again, diluted with dilution solution, and then analyzed by liquid chromatography-tandem mass spectrometry (LC-MS/MS). The concentration of the test compound in the samples was quantitatively determined using LC-MS/MS. Table 3: FaSSIF solubility results of compounds from some examples

SREBP pathway = assay: SREBP luciferase reporter gene system (SRE-luciferase assay); type: cell-based, human; settings: Huh-7/SRE-luc cells, sterol-deficient medium, 0.01-10 µM
Outline: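 Huh-7 cells stably carrying LDLR promoter-luciferase plus GFP were treated 16 h in sterol-deficient medium (5% lipoprotein-deficient serum, 2 µM lovastatin, 10 µM mevalonic acid) at 0.01–10 µM. Luciferase/GFP ratio measured as pathway activity; inhibition versus DMSO fitted to a four-parameter model for IC50.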

[2] = tested on: Fatty Acid Synthase (FASN) gene; assay: Inhibition of FASN gene expression (qPCR) in Huh-7 cells; type: cell-based, human; settings: read-out: FASN IC50
Outline: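 Huh-7 cells switched to starvation DMEM (5% LPDS, 2 µM lovastatin, 10 µM mevalonate) and treated 16 h with compound, top 3000 nM, 3-fold dilutions, 5 concentrations. FASN mRNA by RT-qPCR; inhibition relative to DMSO, IC50 from four-parameter fit.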

[3] = FaSSIF, pH 6.5, fassif, kinetic from dmso stock
[4] = Homo sapiens, Huh-7, 16 h, Huh-7 cells, starvation medium, 16 hours, qPCR, class symbols

Structure (SMILES)	solubility at 1 h [1, 3] [µM]	IC50 (SREBP pathway; Homo sapiens, Huh-7, 16 h) [µM]	IC50 [2, 4] [nM]	also measured
COc1cccc(F)c1C(O)CC[C@@H](C)[C@H]1CC[C@H]2[C@H]3[C@H](CC[C@]12C)[C@@]1(C)CC[C@H](O)[C@H](O)[C@@H]1CC3(F)F (stereo partly drawn) [Compound 333, (1R,3aS,3bS,5aR,6R,7S,9aR,9bS,11aR)-4,4-difluoro-1-[(2R)-5-(2-fluoro-6-methoxyphenyl)-5-hydroxypentan-2-yl]-9a,11a-dimethylhexadecahydro-1H-cyclopenta[1,2-a]phenanthrene-6,7-diol]	148 (≈ 79.7 µg/mL)	0.118	200 to 500	–
COc1nc(F)ccc1[C@@H](O)CC[C@@H](C)[C@H]1CC[C@H]2[C@H]3[C@H](CC[C@]12C)[C@@]1(C)CC[C@H](O)[C@H](O)[C@@H]1CC3(F)F [Compound 337, (1R,3aS,3bS,5aR,6R,7S,9aR,9bS,11aR)-4,4-difluoro-1-[(2R,5S)-5-(6-fluoro-2-methoxypyridin-3-yl)-5-hydroxypentan-2-yl]-9a,11a-dimethylhexadecahydro-1H-cyclopenta[1,2-a]phenanthrene-6,7-diol]	246 (≈ 133 µg/mL)	0.155	< 200	–
COc1cc(F)nc(OC)c1[C@@H](O)CCC[C@@H](C)[C@H]1CC[C@H]2[C@H]3[C@H](CC[C@]12C)[C@@]1(C)CC[C@H](O)[C@H](O)[C@@H]1CC3(F)F (single isomer, unassigned) [Compound 263]	63 (≈ 36.8 µg/mL)	0.032	< 200	–
CCOc1nc(F)ccc1[C@H](O)CCC[C@@H](C)[C@H]1CC[C@H]2[C@H]3[C@H](CC[C@]12C)[C@@]1(C)CC[C@H](O)[C@H](O)[C@@H]1CC3(F)F (single isomer, unassigned) [Compound 283]	288 (≈ 163 µg/mL)	0.027	< 200	–
COc1nc(F)ccc1C(O)CCC[C@@H](C)[C@H]1CC[C@H]2[C@H]3[C@H](CC[C@]12C)[C@@]1(C)CC[C@H](O)[C@H](O)[C@@H]1CC3(F)F (single isomer, unassigned) [Compound 188, (1R,3aS,3bS,5aR,6R,7S,9aR,9bS,11aR)-4,4-difluoro-1-[(2R,6S)-6-(6-fluoro-2-methoxypyridin-3-yl)-6-hydroxyhexan-2-yl]-9a,11a-dimethylhexadecahydro-1H-cyclopenta[1,2-a]phenanthrene-6,7-diol or (1R,3aS,3bS,5aR,6R,7S,9aR,9bS,11aR)-4,4-difluoro-1-[(2R,6R)-6-(6-fluoro-2-methoxypyridin-3-yl)-6-hydroxyhexan-2-yl]-9a,11a-dimethylhexadecahydro-1H-cyclopenta[1,2-a]phenanthrene-6,7-diol]	139 (≈ 76.9 µg/mL)	–	< 200	IC50 (SREBP pathway; 16 hours): 0.142 µM
C[C@H](CCCC(O)c1ccccc1F)[C@H]1CC[C@H]2[C@H]3[C@H](CC[C@]12C)[C@@]1(C)CC[C@H](O)[C@H](O)[C@@H]1CC3(F)F (stereo partly drawn) [Compound 3, (1R,3aS,3bS,5aR,6R,7S,9aR,9bS,11aR)-4,4-difluoro-1-[(2R)-6-(2-fluorophenyl)-6-hydroxyhexan-2-yl]-9a,11a-dimethylhexadecahydro-1H-cyclopenta[1,2-a]phenanthrene-6,7-diol]	247 (≈ 129 µg/mL)	0.03	–	–
C[C@H](CCCC(O)c1ccc2c(n1)OC(F)(F)O2)[C@H]1CC[C@H]2[C@H]3[C@H](CC[C@]12C)[C@@]1(C)CC[C@H](O)[C@H](O)[C@@H]1CC3(F)F (single isomer, unassigned) [Compound 265]	107 (≈ 62.9 µg/mL)	–	–	IC50 (SREBP pathway; 16 hours): 0.006 µM; IC50 ([2]; Homo sapiens, Huh-7, 16 h): < 200 nM
C[C@H](CCCC(O)c1cccc2c1cnn2C)[C@H]1CC[C@H]2[C@H]3[C@H](CC[C@]12C)[C@@]1(C)CC[C@H](O)[C@H](O)[C@@H]1CC3(F)F (single isomer, unassigned) [Compound 249, (1R,3aS,3bS,5aR,6R,7S,9aR,9bS,11aR)-4,4-difluoro-1-[(2R,6S)-6-hydroxy-6-(1-methylindazol-4-yl)hexan-2-yl]-9a,11a-dimethylhexadecahydro-1H-cyclopenta[1,2-a]phenanthrene-6,7-diol or (1R,3aS,3bS,5aR,6R,7S,9aR,9bS,11aR)-4,4-difluoro-1-[(2R,6R)-6-hydroxy-6-(1-methylindazol-4-yl)hexan-2-yl]-9a,11a-dimethylhexadecahydro-1H-cyclopenta[1,2-a]phenanthrene-6,7-diol]	38.6 (≈ 21.6 µg/mL)	0.058	–	–
COc1nc(F)ccc1C(O)CCC[C@@H](C)[C@H]1CC[C@H]2[C@H]3[C@H](CC[C@]12C)[C@@]1(C)CC[C@H](O)[C@H](O)[C@@H]1CC3(F)F (single isomer, unassigned) [Compound 189, (1R,3aS,3bS,5aR,6R,7S,9aR,9bS,11aR)-4,4-difluoro-1-[(2R,6R)-6-(6-fluoro-2-methoxypyridin-3-yl)-6-hydroxyhexan-2-yl]-9a,11a-dimethylhexadecahydro-1H-cyclopenta[1,2-a]phenanthrene-6,7-diol or (1R,3aS,3bS,5aR,6R,7S,9aR,9bS,11aR)-4,4-difluoro-1-[(2R,6S)-6-(6-fluoro-2-methoxypyridin-3-yl)-6-hydroxyhexan-2-yl]-9a,11a-dimethylhexadecahydro-1H-cyclopenta[1,2-a]phenanthrene-6,7-diol]	–	–	–	solubility at 1 h ([1]; 60 min): 157.08 µM (≈ 87 µg/mL); IC50 (SREBP pathway; 16 hours): 0.0231 µM; IC50 ([2]; Huh-7 cells, starvation medium, 16 hours, qPCR, class symbols): < 200 nM
COc1cc(OC)c([C@@H](O)CCC[C@@H](C)[C@H]2CC[C@H]3[C@H]4[C@H](CC[C@]23C)[C@@]2(C)CC[C@H](O)[C@H](O)[C@@H]2CC4(F)F)c(F)n1 (single isomer, unassigned) [Compound 236]	305 (≈ 178 µg/mL)	0.079	–	–
C[C@H](CCCC(O)c1c(F)cc(F)nc1F)[C@H]1CC[C@H]2[C@H]3[C@H](CC[C@]12C)[C@@]1(C)CC[C@H](O)[C@H](O)[C@@H]1CC3(F)F (stereo partly drawn) [Compound 165, (1R,3aS,3bS,5aR,6R,7S,9aR,9bS,11aR)-4,4-difluoro-1-[(2R)-6-hydroxy-6-(2,4,6-trifluoropyridin-3-yl)hexan-2-yl]-9a,11a-dimethylhexadecahydro-1H-cyclopenta[1,2-a]phenanthrene-6,7-diol]	87.4 (≈ 48.9 µg/mL)	0.099	–	–
C[C@H](CCCC(O)c1nccn1C)[C@H]1CC[C@H]2[C@H]3[C@H](CC[C@]12C)[C@@]1(C)CC[C@H](O)[C@H](O)[C@@H]1CC3(F)F (stereo partly drawn) [Compound 223, (1R,3aS,3bS,5aR,6R,7 S,9aR,9bS,11aR)-4,4-Difluoro-1-[(2R)-6-hydroxy-6-(3-methylimidazol-2-yl)hexan-2-yl]-9a,11a-dimethylhexadecahydro-1H-cyclopenta[1,2-a]phenanthrene-6,7-diol]	305 (≈ 155 µg/mL)	0.093	–	–
COc1cc(F)c(C(O)CCC[C@@H](C)[C@H]2CC[C@H]3[C@H]4[C@H](CC[C@]23C)[C@@]2(C)CC[C@H](O)[C@H](O)[C@@H]2CC4(F)F)c(F)c1 (stereo partly drawn) [Compound 197]	328 (≈ 187 µg/mL)	0.073	–	–
C[C@H](CCCC(O)c1nccc2c1OC(F)(F)O2)[C@H]1CC[C@H]2[C@H]3[C@H](CC[C@]12C)[C@@]1(C)CC[C@H](O)[C@H](O)[C@@H]1CC3(F)F (stereo partly drawn) [Compound 296, (1R,3aS,3bS,5aR,6R,7 S,9aR,9bS,11aR)-1-[(2R)-6-(2,2-Difluoro[1,3]dioxolo[4,5-c]pyridin-4-yl)-6-hydroxyhexan-2-yl]-4,4-difluoro-9a,11a-dimethylhexadecahydro-1H-cyclopenta[1,2-a]phenanthrene-6,7-diol]	69.3 (≈ 40.6 µg/mL)	0.226	–	–
COc1nc(F)cnc1C(O)CCC[C@@H](C)[C@H]1CC[C@H]2[C@H]3[C@H](CC[C@]12C)[C@@]1(C)CC[C@H](O)[C@H](O)[C@@H]1CC3(F)F (stereo partly drawn) [Compound 175, (1R,3aS,3bS,5aR,6R,7S,9aR,9bS,11aR)-4,4-difluoro-1-[(2R)-6-(5-fluoro-3-methoxypyrazin-2-yl)-6-hydroxyhexan-2-yl]-9a,11a-dimethylhexadecahydro-1H-cyclopenta[1,2-a]phenanthrene-6,7-diol]	280 (≈ 155 µg/mL)	0.285	–	–
C[C@H](CCCC(O)c1cncc2c1OC(F)(F)O2)[C@H]1CC[C@H]2[C@H]3[C@H](CC[C@]12C)[C@@]1(C)CC[C@H](O)[C@H](O)[C@@H]1CC3(F)F (stereo partly drawn) [Compound 297, (1R,3aS,3bS,5aR,6R,7 S,9aR,9bS,11aR)-1-[(2R)-6-(2,2-Difluoro[1,3]dioxolo[4,5-c]pyridin-7-yl)-6-hydroxyhexan-2-yl]-4,4-difluoro-9a,11a-dimethylhexadecahydro-1H-cyclopenta[1,2-a]phenanthrene-6,7-diol]	19.5 (≈ 11.4 µg/mL)	0.197	–	–
